Laboratory results from ChEMBL document CHEMBL1153774, “Chemical constituents from the aerial parts of Artemisia minor” (J Nat Prod, 2009).

Experiments:
[1] = target: T1, Tyrosine-protein phosphatase non-receptor type 1 (Homo sapiens, UniProt P18031); experiment: Inhibition of human recombinant PTP1B after 10 mins
T1 sequence (P18031 whole entry): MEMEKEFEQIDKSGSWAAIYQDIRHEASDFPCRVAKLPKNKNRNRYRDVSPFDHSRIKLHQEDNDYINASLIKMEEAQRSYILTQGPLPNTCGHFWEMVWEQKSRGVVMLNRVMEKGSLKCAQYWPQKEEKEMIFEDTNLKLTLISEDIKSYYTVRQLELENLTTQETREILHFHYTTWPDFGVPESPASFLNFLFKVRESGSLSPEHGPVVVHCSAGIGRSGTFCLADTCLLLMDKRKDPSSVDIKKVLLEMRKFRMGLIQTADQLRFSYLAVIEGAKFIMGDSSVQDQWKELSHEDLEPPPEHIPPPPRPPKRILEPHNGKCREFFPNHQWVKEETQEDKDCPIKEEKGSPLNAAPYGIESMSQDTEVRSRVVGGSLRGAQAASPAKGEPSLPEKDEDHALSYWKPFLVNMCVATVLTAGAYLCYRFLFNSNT

[2] = target: Xanthine dehydrogenase/oxidase (Homo sapiens, UniProt P47989); experiment: Inhibition of XOD
HepG2 = experiment: Cytotoxicity against human HepG2 cells by SRB assay; format: functional

Sequence of Xanthine dehydrogenase/oxidase (P47989 whole entry): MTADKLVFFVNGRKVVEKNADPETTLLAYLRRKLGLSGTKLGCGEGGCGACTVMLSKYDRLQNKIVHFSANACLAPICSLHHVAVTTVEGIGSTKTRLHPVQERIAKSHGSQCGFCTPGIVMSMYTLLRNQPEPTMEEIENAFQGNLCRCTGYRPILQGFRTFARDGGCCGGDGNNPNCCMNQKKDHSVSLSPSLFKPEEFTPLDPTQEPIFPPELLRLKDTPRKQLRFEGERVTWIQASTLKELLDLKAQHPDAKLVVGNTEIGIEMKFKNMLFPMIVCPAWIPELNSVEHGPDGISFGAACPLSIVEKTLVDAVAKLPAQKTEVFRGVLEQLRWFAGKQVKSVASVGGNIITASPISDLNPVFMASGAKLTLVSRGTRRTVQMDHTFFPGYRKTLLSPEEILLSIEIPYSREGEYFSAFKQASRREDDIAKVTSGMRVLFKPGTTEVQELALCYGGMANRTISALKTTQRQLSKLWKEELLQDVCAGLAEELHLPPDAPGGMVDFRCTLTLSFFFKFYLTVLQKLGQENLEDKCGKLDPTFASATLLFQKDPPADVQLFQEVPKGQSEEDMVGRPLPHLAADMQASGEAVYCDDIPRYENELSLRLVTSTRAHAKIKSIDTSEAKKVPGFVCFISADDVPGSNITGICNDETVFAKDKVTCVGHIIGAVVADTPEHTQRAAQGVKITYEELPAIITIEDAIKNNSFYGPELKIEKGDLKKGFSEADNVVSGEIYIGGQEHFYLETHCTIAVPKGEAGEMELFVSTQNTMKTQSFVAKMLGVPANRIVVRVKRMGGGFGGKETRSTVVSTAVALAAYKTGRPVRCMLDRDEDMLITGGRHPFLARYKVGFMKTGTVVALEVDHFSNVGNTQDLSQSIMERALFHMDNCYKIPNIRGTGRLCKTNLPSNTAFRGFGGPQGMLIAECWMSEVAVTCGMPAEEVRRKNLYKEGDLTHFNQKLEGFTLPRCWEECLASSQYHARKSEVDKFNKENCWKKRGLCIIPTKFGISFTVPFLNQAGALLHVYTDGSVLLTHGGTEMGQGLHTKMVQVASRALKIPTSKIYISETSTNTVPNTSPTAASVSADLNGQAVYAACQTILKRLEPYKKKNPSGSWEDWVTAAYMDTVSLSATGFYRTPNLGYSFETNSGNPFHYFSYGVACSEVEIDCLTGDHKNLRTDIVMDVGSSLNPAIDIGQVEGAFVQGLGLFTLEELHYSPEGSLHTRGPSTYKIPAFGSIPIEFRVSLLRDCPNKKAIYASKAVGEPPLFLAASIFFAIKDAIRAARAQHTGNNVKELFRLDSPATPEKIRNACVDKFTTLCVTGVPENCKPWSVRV

O=C(O)/C=C/c1ccc(O)c(O)c1 [CAFFEIC ACID]
IC50 [1]: 3.06 µM

O=c1cc(-c2ccc(O)c(O)c2)oc2cc(O)cc(O)c12 [LUTEOLIN]
IC50 [2]: 11.5 µM

CC(=O)O[C@H]1C(=O)[C@@]2(C)[C@H]([C@H](OC(=O)c3ccccc3)[C@]3(O)C[C@H](OC(=O)[C@H](O)[C@@H](NC(=O)c4ccccc4)c4ccccc4)C(C)=C1C3(C)C)[C@]1(OC(C)=O)CO[C@@H]1C[C@@H]2O [PACLITAXEL]
GI50 (HepG2): 0.059 µM

COc1cc2cc(-c3cc4cc(O)c(O)cc4oc3=O)c(=O)oc2c(OC)c1O [ARTEMINORIN C]
IC50 [2]: 7.71 µM

CCOC(=O)/C=C/c1ccc(O)c(O)c1 [ETHYL CAFFEATE]
GI50 (HepG2): 17.2 µM
